# Test results published in patent publication US20190069542A1, “COMPOSITIONS AND METHODS FOR REPELLING AND KILLING TICKS AND DETACHMENT OF FEEDING TICKS” (EVOLVA SA, priority 2016, published 2019).
# “And” between values parts separate entries of the source, which are not always exact repeats. Equal entries are not always repeated.
# Key:
# ticks = test: Shell-vial bioassay of morbidity and mortality of ticks; format: in vivo; conditions: for LC50: calculated at 24 hours from Table No. 7
# Method: Next, a shell-vial bioassay was performed to determine whether the nootkatone of the test products (i.e., space spray, lotion, and soap) lost biocidal activity due to the formulation process. The nootkatone derivatives from Example No. 1 were also tested to determine relative biocidal activity. Serial dilutions of each 2% product and nootkatone derivatives were made for a total of 8 concentrations per formulation/derivative. Controls included untreated controls and a nootkatone in acetone composition as a positive control. One hundred and fifty microliters of each concentration was added to a 1 dram glass shell vial and allowed to dry (see FIGS. 3A and 3B).
# Each shell vial with ticks added was placed in a humid container, and morbidity and mortality of ticks were determined at 1 hr and 24 hr post-treatment. Each experiment was performed twice and the results averaged. […]
# [1] = Solvent dissolution tests of nootkatone; format: physicochemical; conditions: data not shown
# Method: Initially, solvent dissolution tests of nootkatone were performed.
Compound,"# Alive/10 (ticks; 0.002%, 1 hr)","# Alive/10 (ticks; 0.002%, 24 hr)","# Alive/10 (ticks; 0.004%, 1 hr)","# Alive/10 (ticks; 0.004%, 24 hr)","# Alive/10 (ticks; 0.008%, 1 hr)","# Alive/10 (ticks; 0.008%, 24 hr)","# Alive/10 (ticks; 0.016%, 1 hr)","# Alive/10 (ticks; 0.016%, 24 hr)","# Alive/10 (ticks; 0.031%, 1 hr)","# Alive/10 (ticks; 0.031%, 24 hr)","# Alive/10 (ticks; 0.063%, 1 hr)","# Alive/10 (ticks; 0.063%, 24 hr)","# Alive/10 (ticks; 0.125%, 1 hr)","# Alive/10 (ticks; 0.125%, 24 hr)","# Alive/10 (ticks; 0.25%, 1 hr)","# Alive/10 (ticks; 0.25%, 24 hr)",LC50 (ticks) [%],other results
"C=C(C)[C@@H]1CCC2CC(=O)C[C@@H](C)[C@]2(C)C1 (stereo partly shown) [1,10 dihydronootkatone, 1,10-dihydronootkatone]",10,9,10,10,10,6,10,6,10,3,10,1,10,2,10,1,0.0097,–
"CC(C)C1CCC2=CC(=O)CC(C)C2(C)C1 (stereo not shown) [11,12 dihydronootkatone, 11,12-dihydronootkatone]",10,6,10,7,10,1,10,0,10,0,10,0,2,0,2,0,0.0071,–
"C=C(C)[C@@H]1CCC2=CC(=O)C[C@@H](C)[C@]2(C)C1 [Nootkatone, nootkatone]",–,–,–,–,–,–,–,–,–,–,–,–,–,–,3 and 2,0,–,"dissolution of nootkatone in solvent ([1]; glycerin): unable to successfully dissolve; dissolution of nootkatone in solvent ([1]; water): unable to successfully dissolve; # Alive/10 (ticks; 0.01%, 1 hr): 7 and 5; # Alive/10 (ticks; 0.01%, 24 hr): 5 and 7; # Alive/10 (ticks; 0.02%, 1 hr): 5; # Alive/10 (ticks; 0.02%, 24 hr): 0; # Alive/10 (ticks; 0.03%, 1 hr): 4; # Alive/10 (ticks; 0.03%, 24 hr): 0; # Alive/10 (ticks; 0.06%, 1 hr): 4; # Alive/10 (ticks; 0.06%, 24 hr): 0; # Alive/10 (ticks; 0.13%, 1 hr): 4; # Alive/10 (ticks; 0.13%, 24 hr): 0; # Alive/10 (ticks; 0.5%, 24 hr): 0; LC50 (ticks; listed as Nootkatone control): 0.0074% and 0.0073%"
"CC(C)[C@@H]1CCC2CC(=O)C[C@@H](C)[C@]2(C)C1 (stereo partly shown) [Tetrahydronootkatone, tetrahydronootkatone]",10,10,10,10,9,9,7,7,7,7,6,5,6,4,5,1,0.0780,–
